Data on 2 compounds can be found in patent US7592305B2, “Use of ghrelin for treating malnutrition in gastrectomized individuals” (Gastrotech Pharma A/S, priority 2002, dated 2009).

The experiment relates to gastrectomised rats. The experiment in a line: Treatment of totally gastrectomised (vagotomised) rats with ghrelin analogue MK-0677 by gavage. Format: in vivo, rat. The method, then: Total gastrectomy was performed and followed by end-to-end anastomosis between the esophagus and the duodenum as described in Lehto-Axtelius D., et al. Osteopenia after gastrectomy, fundectomy or antrectomy: an experimental study in the rat., Regul. Pept. 78 (1998), 41-50. The gastrectomy was accompanied by total vagotomy at the level of cardia. Sham operation was performed by opening the abdomen and moving the stomach.
In sham gastrectomised rats the ghrelin levels were 2.06±0.22 ng/ml, while they were less than the least detectable level of the assay, i e, 0.25 ng/ml after gastrectomy. From four weeks after gastrectomy the animals were administered either water or the ghrelin analogue MK-0677 by gavage once daily (4 mg/kg/day).
Food intake and body weight was measured daily and throughout the experiment. […] After two weeks of treatment, the animals were decapitated and blood and tissues collected and rapidly frozen. Gonadal, mesenteric and retroperitoneal far pads were dissected and weighed, and the sum of the weight was then calculated. Ghrelin was measured in serum using a kit purchased from Phoenix Pharmaceuticals as described (Dornonville de la Cour, supra).

The mark [1] stands for this setting: 4 mg/kg/day by gavage once daily, after two weeks of treatment, vs water.

Ends that are not written are not given here. * marks the point of attachment. Octanoyl = CCCCCCCC(=O)*

As to `CC(C)(N)C(=O)N[C@H](COCc1ccccc1)C(=O)N1CCC2(CC1)CN(S(C)(=O)=O)c1ccccc12` [MK677], the body weight entry (4 mg/kg/day by gavage once daily from four weeks after gastrectomy, two weeks of treatment, vs water) is “increased”. Moreover, under setting [1], the “hypothalamic levels of neuropeptide Y (NPY) mRNA” value was “increased”; the “sum of dissected fat pad weights (gonadal, mesenteric and retroperitoneal)” value is reported as “enhanced”.
Consider “ghrelin: acylated peptide of 28 amino acids with an octanoyl ester attached to a serine residue (GSS(Octanoyl)FLSPEHQRVQQRKESKKPPAKLQPR; listed as Homo sapiens)”, for which the “desire for food (food intake measured daily)” value (treated once daily by gavage) is given as “increased”.
